Measurements reported in US20230389548A1, “MIXTURES OF PYRIMIDINES AS HERBICIDAL COMPOSITIONS” (SYNGENTA CROP PROTECTION AG, priority 2020, published 2023).

Tests used:
Experiment in all cases: Post-emergence glasshouse spray test, visual percentage phytotoxicity after 13 days
Assay type in all cases: in vivo
Lolium perenne (LOLPE) = details: for LOLPE percentage phytotoxicity: B1; for Observed phytotoxicity LOLPE: B2.1.1
Method: (§1) Seeds of Setaria faberi (SETFA), Echinochloa crus-galli (ECHCG), Digitaria sanguinalis (DIGSA), Lolium perenne (LOLPE), Alopecurus myosuroides (ALOMY), Chenopodium album (CHEAL), Ipomoea hederacea (IPOHE), Stellaria media (STEME), Abutilon threophrasti (ABUTH), Amaranthus retroflexus (AMARE) were sown in standard sterilised soil in pots. After cultivation for 8 days under controlled conditions in a glasshouse (at 24/19° C., day/night; 16 hours light; no humidity control), the plants were sprayed at 500 l/Ha with an aqueous spray solution derived from the formulation of the technical active ingredients in a small amount of acetone and a solvent and emulsifier mixture referred to as IF50 (11.12% Emulsogen EL360™+44.44% N-methylpyrrolidone+44.44% Dowanol DPM glycol ether), to create a 50 g/l solution which was then diluted using 0.2% Genapol XO80 (CAS Number: 9043-30-5) as diluent to give the desired final dose of test compound.
(§2) Where active ingredients were applied as mixtures, aqueous spray solutions were prepared as above, containing both active ingredients.
(§3) The test plants were then grown under controlled conditions in a glasshouse (at 24/18° C., day/night; 15 hours light; 50% humidity) and watered twice daily. After 13 days, the test was evaluated visually for percentage phytotoxicity to the plants (where 100=total damage to plant; 0=no damage to plant; and NC=not captured) when compared to control untreated plants. Two to four replicates were applied for each treatment in a randomised block test design.
(§4) 22., E=X+Y−(X*Y/100), where
(§5) X=average percent phytotoxicity of herbicide A when applied at a certain rate Y=average percent phytotoxicity using herbicide B when applied at a certain rate E=the expected effect of the mixture of herbicides A and B as calculated from the Colby formula.

[1] = tested on: Chenopodium album (CHEAL); details: for CHEAL percentage phytotoxicity: B1; for Observed phytotoxicity CHEAL: B2.1.6
Method: as §1, §2, §3, §4, §5

[2] = tested on: Amaranthus retroflexus (AMARE); details: for AMARE percentage phytotoxicity: B1
Method: as §1, §2, §3, §4, §5

[3] = tested on: Ipomoea hederacea (IPOHE); details: B1
Method: as §1, §2, §3, §4, §5

[4] = tested on: Abutilon threophrasti (ABUTH); details: for ABUTH percentage phytotoxicity: B1; for Observed phytotoxicity ABUTH: B2.1.7
Method: as §1, §2, §3, §4, §5

Setaria faberi (SETFA) = details: for SETFA percentage phytotoxicity: B1
Method: as §1, §2, §3, §4, §5

[5] = tested on: Digitaria sanguinalis (DIGSA); details: B1
Method: as §1, §2, §3, §4, §5

[6] = tested on: Echinochloa crus-galli (ECHCG); details: for ECHCG percentage phytotoxicity: B1; for Observed phytotoxicity ECHCG: B2.1.2
Method: as §1, §2, §3, §4, §5

Stellaria media (STEME) = details: for STEME percentage phytotoxicity: B1; for Observed phytotoxicity STEME: B2.1.4
Method: as §1, §2, §3, §4, §5

`CN1C[C@H](c2cccc(C(F)(F)F)c2)[C@@H](C(=O)Nc2ccccc2F)C1=O` [B-III] gave an LOLPE percentage phytotoxicity (Lolium perenne (LOLPE); 3.125 g/ha post-emergence) of 30%, an LOLPE percentage phytotoxicity (Lolium perenne (LOLPE); 6.25 g/ha post-emergence) of 43% and an LOLPE percentage phytotoxicity (Lolium perenne (LOLPE); 12.5 g/ha post-emergence) of 55%. For the same molecule, the LOLPE percentage phytotoxicity (Lolium perenne (LOLPE); 25 g/ha post-emergence) was 70%, the LOLPE percentage phytotoxicity (Lolium perenne (LOLPE); 50 g/ha post-emergence) was 75% and the “Observed phytotoxicity LOLPE” value (Lolium perenne (LOLPE); 6.25 g/ha post-emergence) was 43%. For the same molecule, the “Observed phytotoxicity LOLPE” value (Lolium perenne (LOLPE); 12.5 g/ha post-emergence) was 55%, the CHEAL percentage phytotoxicity ([1]; 3.125 g/ha post-emergence) was 6% and the CHEAL percentage phytotoxicity ([1]; 6.25 g/ha post-emergence) was 10%. The CHEAL percentage phytotoxicity ([1]; 12.5 g/ha post-emergence) was 14%, the CHEAL percentage phytotoxicity ([1]; 25 g/ha post-emergence) was 44% and the CHEAL percentage phytotoxicity ([1]; 50 g/ha post-emergence) was 56%. The “Observed phytotoxicity CHEAL” value ([1]; 6.25 g/ha post-emergence) was 10%, the “Observed phytotoxicity CHEAL” value ([1]; 12.5 g/ha post-emergence) was 14% and the AMARE percentage phytotoxicity ([2]; 3.125 g/ha post-emergence) was 4%. For the same molecule, the AMARE percentage phytotoxicity ([2]; 6.25 g/ha post-emergence) was 6%, the AMARE percentage phytotoxicity ([2]; 12.5 g/ha post-emergence) was 10% and the AMARE percentage phytotoxicity ([2]; 25 g/ha post-emergence) was 21%. The AMARE percentage phytotoxicity ([2]; 50 g/ha post-emergence) was 31%, the “Observed phytotoxicity AMARE” value ([2]; B2.1.5, 6.25 g/ha post-emergence) was 6% and the IPOHE percentage phytotoxicity ([3]; 3.125 g/ha post-emergence) was 9%. It also gave an IPOHE percentage phytotoxicity ([3]; 6.25 g/ha post-emergence) of 11%, an IPOHE percentage phytotoxicity ([3]; 12.5 g/ha post-emergence) of 15% and an IPOHE percentage phytotoxicity ([3]; 25 g/ha post-emergence) of 24%. The IPOHE percentage phytotoxicity ([3]; 50 g/ha post-emergence) was 28%, the ABUTH percentage phytotoxicity ([4]; 3.125 g/ha post-emergence) was 10% and the ABUTH percentage phytotoxicity ([4]; 6.25 g/ha post-emergence) was 4%. It also gave an ABUTH percentage phytotoxicity ([4]; 12.5 g/ha post-emergence) of 3%, an ABUTH percentage phytotoxicity ([4]; 25 g/ha post-emergence) of 19% and an ABUTH percentage phytotoxicity ([4]; 50 g/ha post-emergence) of 18%. For the same molecule, the “Observed phytotoxicity ABUTH” value ([4]; 6.25 g/ha post-emergence) was 4%, the “Observed phytotoxicity ABUTH” value ([4]; 12.5 g/ha post-emergence) was 3% and the “Observed phytotoxicity ABUTH” value ([4]; 25 g/ha post-emergence) was 19%. The “Observed phytotoxicity ABUTH” value ([4]; 50 g/ha post-emergence) was 18%, the SETFA percentage phytotoxicity (Setaria faberi (SETFA); 3.125 g/ha post-emergence) was 66% and the SETFA percentage phytotoxicity (Setaria faberi (SETFA); 6.25 g/ha post-emergence) was 68%. It also gave an SETFA percentage phytotoxicity (Setaria faberi (SETFA); 12.5 g/ha post-emergence) of 70%, an SETFA percentage phytotoxicity (Setaria faberi (SETFA); 25 g/ha post-emergence) of 74% and an SETFA percentage phytotoxicity (Setaria faberi (SETFA); 50 g/ha post-emergence) of 73%. For the same molecule, the “Observed phytotoxicity SETFA” value (Setaria faberi (SETFA); B2.1.3, 25 g/ha post-emergence) was 74%, the DIGSA percentage phytotoxicity ([5]; 3.125 g/ha post-emergence) was 72% and the DIGSA percentage phytotoxicity ([5]; 6.25 g/ha post-emergence) was 74%. The DIGSA percentage phytotoxicity ([5]; 12.5 g/ha post-emergence) was 78%, the DIGSA percentage phytotoxicity ([5]; 25 g/ha post-emergence) was 79% and the DIGSA percentage phytotoxicity ([5]; 50 g/ha post-emergence) was 80%. It also gave an ECHCG percentage phytotoxicity ([6]; 3.125 g/ha post-emergence) of 70%, an ECHCG percentage phytotoxicity ([6]; 6.25 g/ha post-emergence) of 70% and an ECHCG percentage phytotoxicity ([6]; 12.5 g/ha post-emergence) of 73%. The ECHCG percentage phytotoxicity ([6]; 25 g/ha post-emergence) was 73%, the ECHCG percentage phytotoxicity ([6]; 50 g/ha post-emergence) was 75% and the “Observed phytotoxicity ECHCG” value ([6]; 12.5 g/ha post-emergence) was 73%. The “Observed phytotoxicity ECHCG” value ([6]; 50 g/ha post-emergence) was 75%, the STEME percentage phytotoxicity (Stellaria media (STEME); 3.125 g/ha post-emergence) was 13% and the STEME percentage phytotoxicity (Stellaria media (STEME); 6.25 g/ha post-emergence) was 21%. The STEME percentage phytotoxicity (Stellaria media (STEME); 12.5 g/ha post-emergence) was 14%, the STEME percentage phytotoxicity (Stellaria media (STEME); 25 g/ha post-emergence) was 46% and the STEME percentage phytotoxicity (Stellaria media (STEME); 50 g/ha post-emergence) was 71%. The “Observed phytotoxicity STEME” value (Stellaria media (STEME); 6.25 g/ha post-emergence) was 21% and the “Observed phytotoxicity STEME” value (Stellaria media (STEME); 12.5 g/ha post-emergence) was 14%.
